Results published in patent publication US9315459B2, “Crystalline forms of 4-[2-(4-methylphenylsulfanyl)-phenyl] piperidine” (priority 2006, dated 2016).

Assays:
[1] = target: T1, human-homomeric 5-HT3A receptors (Homo sapiens, UniProt P46098); experiment: Voltage clamp in oocytes expressing human-homomeric 5-HT3A receptors; type: cell-based; settings: agonism at higher concentrations
T1 sequence (P46098 24-478): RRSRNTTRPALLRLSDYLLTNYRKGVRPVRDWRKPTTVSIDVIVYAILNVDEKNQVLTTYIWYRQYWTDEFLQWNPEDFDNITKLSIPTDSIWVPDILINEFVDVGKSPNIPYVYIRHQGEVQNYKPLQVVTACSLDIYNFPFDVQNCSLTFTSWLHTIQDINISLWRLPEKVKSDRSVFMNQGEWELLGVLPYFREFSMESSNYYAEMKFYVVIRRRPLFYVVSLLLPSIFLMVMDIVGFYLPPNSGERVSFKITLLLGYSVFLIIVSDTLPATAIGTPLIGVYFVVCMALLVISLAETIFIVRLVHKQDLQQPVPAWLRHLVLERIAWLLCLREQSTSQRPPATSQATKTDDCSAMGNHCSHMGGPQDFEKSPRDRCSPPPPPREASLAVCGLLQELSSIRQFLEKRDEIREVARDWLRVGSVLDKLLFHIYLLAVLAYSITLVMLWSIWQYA
Method: The experiments were carried out as follows. […] Oocytes avoid of the follicle layer were selected and incubated for 24 hours in Modified Barth's Saline buffer [88 mM NaCl, 1 mM KCl, 15 mM HEPES, 2.4 mM NaHCO3, 0.41 mM CaCl2, 0.82 mM MgSO4, 0.3 mM Ca(NO3)2] supplemented with 2 mM sodium pyruvate, 0.1 U/l penicillin and 0.1 μg/l streptomycin. Stage […] oocytes were identified and injected with 12-48 nl of nuclease free water containing 14-50 pg of cRNA coding for human 5-HT3A receptors receptors and incubated at 18° C. until they were used for electrophysiological recordings (1-7 days after injection). […] Cells were impaled with agar plugged 0.5-1 MΩ electrodes containing 3 M KCl and voltage clamped at −90 mV by a GeneClamp 500B amplifier. The oocytes were continuously perfused with Ringer buffer and the drugs were applied in the perfusate.

[2] = target: T2, human alpha1A-7 receptors (Homo sapiens, UniProt P35348); experiment: Functional assay, adrenaline evoked release of Ca2+ in CHO cells expressing human alpha1A-7 receptors; type: cell-based
T2 construct: expressed in transfected cells; host or cells: CHO cells
T2 sequence (P35348 1-466): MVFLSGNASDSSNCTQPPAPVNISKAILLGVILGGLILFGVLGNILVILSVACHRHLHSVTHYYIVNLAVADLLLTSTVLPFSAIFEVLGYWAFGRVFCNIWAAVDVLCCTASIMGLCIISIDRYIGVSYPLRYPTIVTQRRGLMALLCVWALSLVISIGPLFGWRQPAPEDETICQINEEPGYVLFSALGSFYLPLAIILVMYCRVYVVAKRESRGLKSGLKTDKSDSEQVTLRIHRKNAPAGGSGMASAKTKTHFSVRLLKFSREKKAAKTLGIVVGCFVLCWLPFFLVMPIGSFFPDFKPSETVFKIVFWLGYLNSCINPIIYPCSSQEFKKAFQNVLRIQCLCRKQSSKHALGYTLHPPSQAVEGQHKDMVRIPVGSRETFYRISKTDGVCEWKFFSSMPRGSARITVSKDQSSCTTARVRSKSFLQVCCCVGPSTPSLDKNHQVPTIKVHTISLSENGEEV
Method: These experiments were carried out essentially as described below. All cells were cultured in DMEM medium supplemented with 10% BCS, 4 mM L-glutamine (or 2 mM in the case of COS-7), and 100 units/ml penicillin plus 100 μg/ml streptomycin, at 37° C., in 5% CO2. Twenty-four hours prior to assays, CHO cells expressing the human alpha1A-7 receptors were seeded into 384-well black wall microtiter plates coated with poly-D-lysine. […] After excess dye was discarded, cells were washed in assay buffer and layered with a final volume equal to 45 μl/well (or 30 ul/well for antagonist assay). […] Basal fluorescence was monitored in a fluorometric imaging plate reader or FLIPR™ from Molecular Devices (Sunnyvale, Calif.) with an excitation wavelength of 488 nm and an emission range of 500 to 560 nm. Laser excitation energy was adjusted so that basal fluorescence readings were approximately 8,000 relative fluorescent units (RFU). Cells were then stimulated at room temperature with agonists diluted in assay buffer (15 μl), and RFU were measured at 1.5 second intervals over a period of 2.5 min. Maximum change in fluorescence was calculated for each well. Concentration-response curves derived from the maximum change in fluorescence were analyzed by nonlinear regression (Hill equation).

[3] = test system: C57/B6 mice; experiment: Formalin model of neuropathic pain, time spent licking the injured paw; type: in vivo; settings: summary in words of table 4
Method: The irritation caused by the formalin injection elicits a characteristic biphasic behavioural response, as quantified by the amount of time spent licking the injured paw. The first phase (˜0-10 minutes) represents direct chemical irritation and nociception, whereas the second (˜20-30 minutes) is thought to represent pain of neuropathic origin. The two phases are separated by a quiescent period in which behaviour returns to normal. Measuring the amount of time spent licking the injured paw in the two phases assesses the effectiveness of test compounds to reduce the painful stimuli. Eight C57/B6 mice (ca. 25 g) were tested per group. Table 4 below show the amount of time spent licking the injured paw in the two phases, i.e. 0-5 minutes and 20-30 minutes post formalin injection. The amount of compound administered is calculated as the free base.

- Maximal current, % of the maximal current elicited by 5-HT [1]: 70-80%
- Functional profile, adrenaline evoked release of Ca2+ [2]: antagonists
Structure (SMILES): Cc1ccc(Sc2ccccc2C2CCNCC2)cc1 [compound I, 4-[2-(4-methylphenylsulfanyl)-phenyl]piperidine]
- Effect in the first phase (direct chemical irritation and nociception) [3]: little effect
- Effect in the second phase (time spent licking paws) [3]: clear and dose dependent decrease
